Assay results published in patent publication US10106539B2, “Spiro-indolines for the treatment and prophylaxis of respiratory syncytial virus infection (RSV)” (REVIRAL LIMITED, priority 2014, dated 2018).
Like-named read-outs stand apart in the source and are kept apart here.

Columns and labels:
[1] = In vivo pharmacokinetics in rats (IV and PO); set-up: species or system male Sprague Dawley rats; settings: rat; for Vd: 1 mg/kg (IV)
Procedure: The pharmacokinetics of compounds were studied in vivo in male Sprague Dawley rats at doses of 1 mg/kg (IV) and 10 mg/kg (PO).
Sprague Dawley rats were treated with experimental compounds via intravenous and oral administration. Three animals for each route of administration were used with serial blood sampling at ten time points post dosing of compound.
Animals were weighed and used if between 200-250 g. Serial blood samples were collected at 0.02, 0.08, 0.25, 0.50, 1, 2, 4, 6, 8 and 24 hours post dosing. […] Blood samples were delivered into an anticoagulant (sodium heparin) and centrifuged at 4° C. Plasma samples were subsequently stored frozen at less than −20° C. prior to analysis.
Following protein precipitation with acetonitrile, samples were analysed with tandem liquid chromatography/mass spectrometry using electrospray ionisation. A full matrix curve with internal standards was employed and PK parameters were calculated.
In a similar manner, oral administration was performed by gavage at doses of 5 or 10 mg/kg at a concentration of 5 mg/ml in 1% Methyl cellulose (Sigma M7140), 0.1% Tween 80 in water. Serial samples were taken as described above.
RV039 was administered at doses of 1 mg/kg (IV) and 5 mg/kg (PO).

[2] = Liver microsomal stability, rat; format: in vitro ADME; settings: male, Sprague Dawley
Procedure: Microsomal Incubation: Experimental Procedure
Pooled human liver microsomes (pooled male and female), pooled rat liver microsomes (male Sprague Dawley rats) and pooled dog liver microsomes (male Beagle dog) are purchased from a reputable commercial supplier and stored at −80° C. prior to use.
The final incubation volume is 50 μL. A control incubation is included for each compound tested where 0.1 M phosphate buffer pH 7.4 is added instead of NADPH (minus NADPH). Two control compounds are included with each species. All incubations are performed singularly for each test compound.
The reactions are stopped by transferring 25 μL of incubate to 50 μL methanol at the appropriate time points. The termination plates are centrifuged at 2,500 rpm for 20 min at 4° C. to precipitate the protein. Following protein precipitation, the sample supernatants are combined in cassettes of up to 4 compounds, internal standard is added and samples analysed by LC-MS/MS. From a plot of ln peak area ratio (compound peak area/internal standard peak area) against time, the gradient of the line is determined. Subsequently, half-life and intrinsic clearance are calculated

[3] = Plasma protein binding (equilibrium dialysis), dog; format: in vitro ADME; settings: plasma (100%)
Procedure: (§1) Protein Binding Determination: Experimental Procedure
(§2) Solutions of test compound (5 μM, 0.5% final DMSO concentration) are prepared in buffer (pH 7.4) and 100% species-specific plasma. The experiment is performed using equilibrium dialysis with the two compartments separated by a semi-permeable membrane. The buffer solution is added to one side of the membrane and the plasma solution to the other side. After equilibration, samples are taken from both sides of the membrane. Standards are prepared in plasma and buffer and are incubated at 37° C.
(§3) Test compound incubations are performed in duplicate. A control compound is included in each experiment.
(§4) The solutions for each batch of compounds are combined into two groups (protein-free and protein-containing), then cassette analysed by LC-MS/MS using two sets of calibration standards for protein-free (7 points) and protein-containing solutions (6 points).

[4] = test system: human P-gp (MDR1); assay: MDR1-MDCK permeability; format: in vitro ADME; settings: dog
Procedure: MDR1-MDCK Permeability: Experimental Procedure
MDR1-MDCK cells obtained from the NIH (Rockville, Md., USA) are used between passage numbers 6-30. Cells are seeded onto Millipore Multiscreen Transwell plates at 3.4×10^5 cells/cm2. The cells are cultured in DMEM and media is changed on day 3. On day 4 the permeability study is performed. Cell culture and assay incubations are carried out at 37° C. in an atmosphere of 5% CO2 with a relative humidity of 95%. On the day of the assay, the monolayers are prepared by rinsing both basolateral and apical surfaces twice with Hanks Balanced Salt Solution (HBSS) at the desired pH warmed to 37° C. Cells are then incubated with HBSS at the desired pH in both apical and basolateral compartments for 40 min to stabilise physiological parameters.
The dosing solutions are prepared by diluting test compound with assay buffer to give a final test compound concentration of 10 μM (final DMSO concentration of 1% v/v). The fluorescent integrity marker lucifer yellow is also included in the dosing solution. Analytical standards are prepared from test compound DMSO dilutions and transferred to buffer, maintaining a 1% v/v DMSO concentration.
For assessment of A-B permeability, HBSS is removed from the apical compartment and replaced with test compound dosing solution. The apical compartment insert is then placed into a companion plate containing fresh buffer (containing 1% v/v DMSO). For assessment of B-A permeability, HBSS is removed from the companion plate and replaced with test compound dosing solution. Fresh buffer (containing 1% v/v DMSO) is added to the apical compartment insert, which is then placed into the companion plate.
At 60 min the apical compartment inserts and the companion plates are separated and apical and basolateral samples diluted for analysis.
Test compound permeability is assessed in duplicate. Compounds of known permeability characteristics are run as controls on each assay plate.
Test and control compounds are quantified by LC-MS/MS cassette analysis using an 8-point calibration with appropriate dilution of the samples. The starting concentration (C0) is determined from the dosing solution and the experimental recovery calculated from C0 and both apical and basolateral compartment concentrations.
The integrity of the monolayer throughout the experiment is checked by monitoring lucifer yellow permeation using fluorimetric analysis. Lucifer yellow permeation is high if monolayers have been damaged.

[5] = Plasma protein binding (equilibrium dialysis), rat; format: in vitro ADME; settings: plasma (100%)
Procedure: as §1, §2, §3, §4

Compound	bioavailability ([1]; male, Sprague Dawley, plasma, rats, 1 mg/kg (IV) and 5 mg/kg (PO), Comparative Example 3, read-out: Bioavailability (Table 6)) [%]	Vd ([1]; male, Sprague Dawley, plasma, rats, Comparative Example 3, read-out: Volume of distribution (Table 6)) [L/kg]	Tmax ([1]; male, Sprague Dawley, plasma, rats, 5 mg/kg (PO), Comparative Example 3, read-out: Tmax PO (Table 6)) [h]	half-life at 3 μM ([2]; pooled liver microsomes, pH 7.4, Comparative Example 2, read-out: Liver Microsomal Stability T1/2, rat (Table 5)) [h]	fraction unbound at 5 μM ([3]; pH 7.4, Comparative Example 2, read-out: PPB fraction unbound, dog (Table 5))	Papp A→B at 60 min, 10 μM [4] [×10⁻⁶ cm/s]	Papp B→A at 60 min, 10 μM [4] [×10⁻⁶ cm/s]	fraction unbound at 5 μM ([5]; pH 7.4, Comparative Example 2, read-out: PPB fraction unbound, rat (Table 5))	bioavailability ([1]; in vivo, male Sprague Dawley rats, 1 mg/kg (IV) and 10 mg/kg (PO), read-out: Bioavailability) [%]	Vd ([1]; in vivo, male Sprague Dawley rats, read-out: Volume of distribution) [L/kg]	Tmax ([1]; in vivo, male Sprague Dawley rats, 10 mg/kg (PO), read-out: Tmax PO) [h]	half-life at 3 μM ([2]; pH 7.4, rat liver microsomes, 3 μM compound, read-out: Liver Microsomal Stability T1/2, rat) [h]	fraction unbound at 5 μM ([3]; pH 7.4, 5 μM, read-out: PPB fraction unbound, dog)	Papp A→B at 60 min, 10 μM ([4]; A-B, 10 μM, 60 min, read-out: Permeability (Human Pgp transfected) MDCK Papp A-B) [×10⁻⁶ cm/s]	Papp B→A at 60 min, 10 μM ([4]; B-A, 10 μM, 60 min, read-out: Permeability (Human Pgp transfected) MDCK Papp B-A) [×10⁻⁶ cm/s]	fraction unbound at 5 μM ([5]; pH 7.4, 5 μM, read-out: PPB fraction unbound, rat)
CC(C)CCn1c(CN2C(=O)C3(CC3)c3ccccc32)nc2cc(CN)ccc21 [RV039, 1′-((5-(aminomethyl)-1-isopentyl-1H-benzo[d]imidazol-2-yl)methyl)spiro[cyclopropane-1,3′-indolin]-2′-one, reference compound]	4.5	47	7.3	> 1.58	0.1	0.42	49	0.1	–	–	–	–	–	–	–	–
NCc1ccc2c(c1)nc(CN1C(=O)C3(CC3)c3ccc(F)cc31)n2CCCC(F)(F)F [Example 1, 1′-{[5-(Aminomethyl)-1-(4,4,4-trifluorobutyl)-1H-1,3-benzodiazol-2-yl]methyl}-6′-fluoro-1′,2′-dihydrospiro[cyclopropane-1,3′-indole]-2′-one]	–	–	–	–	–	–	–	–	42	22	2.7	1.33	0.27	0.5	73	0.52
